# Measurements taken from publication PMC9227305, “Photoinduced Synthesis of Methylated Marine Cyclopeptide Galaxamide Analogs with Isoindolinone as Anticancer Agents” (Marine Drugs, 2022).
# Values joined by “and” are separate entries in the source; they are usually repeats but may differ in a detail not shown here. Equal values may be shown once. Read-outs that look alike come from different tables or passages of the source. *1 amine or outer side, *2 acyl side, *3 side chain or, on linkers, in order; H or OH if unused. Where a SMILES comes first, the peptide text is derived from it. [ ]: non-standard residue; d: D form. X1 = O=C1c2ccccc2[C@@](O)(CN(Cc2ccccc2)[*:1])N1CC(=O)[*:2]; X2 = O=C1c2ccccc2[C@](O)(CN(Cc2ccccc2)[*:1])N1CC(=O)[*:2]; NMeL = CN[C@@H](CC(C)C)C(=O)O; dNMeL = CN[C@H](CC(C)C)C(=O)O
# Legend:
# [1] = other bond; 21-membered ring; hv (450 W Hg lamp, Pyrex), SET photocyclization
# L929 cells = test: cells
# Source text: (§1) The antitumor activity of the prepared cyclic peptides against human hepatocellular carcinoma cells (HepG-2), human cervical cancer cell lines (HeLa) and human breast cancer cells (MDA-MB-231) was examined by MMT assay, and the mouse fibroblast L929 cells were used as the model cells to evaluate the toxicity of cyclopeptides to normal cell lines. Due to the absence of an authentic standard, taxol was chosen as a control because it is a widely used chemotherapeutic drug for the treatment of various cancers, including liver cancer.
# (§2) Samples were dissolved in DMSO and diluted into different concentrations ([…], 18.75, 25, 37.5, 50, 75, 100 and 250 μM) and stored at 4 °C. Cells in the logarithmic growth phase were digested with trypsin and then seeded in 96-well plates at a density of 2 × 10^4 cells/well in 100 μL of culture medium. The cells were treated with different concentrations of the tested compound, and a blank control group without the drug was also set up. Six wells were repeated for each dose. After 48 h of co-incubation, MTT solution (100 μL, 0.5 mg/mL) was added, followed by incubation for another 4 h. After discarding the supernatant, 100 μL of DMSO was added per well, and the absorbance (OD) values were measured at 490 nm using an enzyme marker. Cell viability was calculated by the formula: Cell viability (%) = As/Ab × 100% (where As is the absorbance value of the experimental group and Ab is the absorbance value of the blank group). The obtained data were processed using SPSS19 software to obtain IC50 values.
# HepG-2 cells = test: cells
# Source text: as §1, §2
# MDA-MB-231 cells = format: cell-based, human; conditions: 48 h
# Source text: as §1, §2
# [2] = tested on: human hepatocellular carcinoma HepG-2 cell lines; parameters: method as in PMID 18816120; conditions: cited from earlier work
# [3] = tested on: renal carcinoma GRC-1 cell lines; parameters: method as in PMID 18816120; conditions: cited from earlier work
Compound,IC50 (HepG-2 cells; 48 h) [µM],IC50 (MDA-MB-231 cells) [µM],"ring closure, isolated yield [1]",IC50 (L929 cells; 48 h) [µM],further results
3-Hydroxy-isoindolinone-cyclo-(Gly-Leu-N-Me-Leu-Leu-N-Me-Leu-Leu),,,51%,,
3-Hydroxy-isoindolinone-cyclo-Gly-Leu-Leu-Leu-N-Me-Leu-Leu,,,24% and 28%,,
3-Hydroxy-isoindolinone-cyclo-Gly-Leu-N-Me-Leu-Leu-Leu-Leu,,,25% and 23%,,
3-Hydroxy-isoindolinone-cyclo-Gly-Leu-N-Me-Leu-Leu-N-Me-Leu-Leu,,,48% and 43% and 45%,,
"CC(C)C[C@@H]1C(=O)N[C@H](CC(C)C)C(=O)N(C)[C@H](CC(C)C)C(=O)N[C@H](CC(C)C)C(=O)N(Cc2ccccc2)C[C@@]2(O)c3ccccc3C(=O)N2CC(=O)N[C@H](CC(C)C)C(=O)N1C [Compound 1, 3-Hydroxy-isoindolinone-cyclo-(Gly-Leu-N-Me-Leu-Leu-N-Me-Leu-Leu)] (cyclo([dNMeL][dL][dNMeL][dL][X2][dL]))",38.4 ± 2.2,59.3 ± 2.3,,> 400,
"CC(=O)O[C@H]1C(=O)[C@@]2(C)[C@H]([C@H](OC(=O)c3ccccc3)[C@]3(O)C[C@H](OC(=O)[C@H](O)[C@@H](NC(=O)c4ccccc4)c4ccccc4)C(C)=C1C3(C)C)[C@]1(OC(C)=O)CO[C@@H]1C[C@@H]2O [Taxol, paclitaxel, reference compound]",,,,,"IC50 (L929 cells; Mus musculus, L929, 48 h, read-out: IC50 L929): 141 ± 9.3 µM; IC50 (HepG-2 cells; Homo sapiens, HepG2, 48 h, read-out: IC50 HepG-2): 40.9 ± 5.2 µM"
cyclo-(L-Leu-L-N-Me-Leu-L-Leu-L-Leu-L-N-Me-Leu-L-Leu) [galaxamide],,,,,in vitro antitumor activity [2]: strong; in vitro antitumor activity [3]: strong

# Further lines, with some results ahead:
IC50 (HepG-2 cells; 48 h) [µM],IC50 (MDA-MB-231 cells) [µM],Compound,"ring closure, isolated yield [1]",IC50 (L929 cells; 48 h) [µM],further results
72.1 ± 5.8,67.6 ± 3.3,"CC(C)C[C@H]1NC(=O)[C@H](CC(C)C)N(C)C(=O)[C@@H](CC(C)C)NC(=O)[C@H](CC(C)C)N(C)C(=O)[C@@H](CC(C)C)NC(=O)CN2C(=O)c3ccccc3[C@]2(O)CN(Cc2ccccc2)C1=O [Compound 2, 3-Hydroxy-isoindolinone-cyclo-Gly-Leu-N-Me-Leu-Leu-N-Me-Leu-Leu] (cyclo([NMeL][dL][NMeL][dL][X2][dL]))",,364 ± 15.6,
90.9 ± 7.69,73.2 ± 2.8,"CC(C)C[C@@H]1NC(=O)[C@@H](CC(C)C)N(C)C(=O)[C@H](CC(C)C)NC(=O)[C@@H](CC(C)C)N(C)C(=O)[C@H](CC(C)C)NC(=O)CN2C(=O)c3ccccc3[C@]2(O)CN(Cc2ccccc2)C1=O [Compound 3, 3-Hydroxy-isoindolinone-cyclo-Gly-Leu-N-Me-Leu-Leu-N-Me-Leu-Leu] (cyclo([dNMeL]L[dNMeL]L[X2]L))",,> 400,
81 ± 4.29,95.3 ± 8.6,"CC(C)C[C@@H]1NC(=O)[C@H](CC(C)C)N(C)C(=O)[C@H](CC(C)C)NC(=O)[C@H](CC(C)C)N(C)C(=O)[C@H](CC(C)C)NC(=O)CN2C(=O)c3ccccc3[C@@]2(O)CN(Cc2ccccc2)C1=O [Compound 4, 3-Hydroxy-isoindolinone-cyclo-Gly-Leu-N-Me-Leu-Leu-N-Me-Leu-Leu] (cyclo([NMeL]L[NMeL]L[X1]L))",,310 ± 20.1,
28.2 ± 6.2,60.8 ± 8.2,"CC(C)C[C@@H]1C(=O)N[C@H](CC(C)C)C(=O)N[C@H](CC(C)C)C(=O)N[C@H](CC(C)C)C(=O)N(Cc2ccccc2)C[C@]2(O)c3ccccc3C(=O)N2CC(=O)N[C@H](CC(C)C)C(=O)N1C [Compound 5, 3-Hydroxy-isoindolinone-cyclo-Gly-Leu-Leu-Leu-N-Me-Leu-Leu] (cyclo([dL][dL][X1][dL][dNMeL][dL]))",,153 ± 10.7,
36.1 ± 2.2,67.6 ± 2.3,"CC(C)C[C@@H]1C(=O)N[C@H](CC(C)C)C(=O)N[C@H](CC(C)C)C(=O)N[C@H](CC(C)C)C(=O)N(Cc2ccccc2)C[C@]2(O)c3ccccc3C(=O)N2CC(=O)N[C@H](CC(C)C)C(=O)N1C [Compound 6, 3-Hydroxy-isoindolinone-cyclo-Gly-Leu-N-Me-Leu-Leu-Leu-Leu] (cyclo([dL][dL][X1][dL][dNMeL][dL]))",,120 ± 5.3,
30.4 ± 1.6,112 ± 9,"CC(C)C[C@@H]1NC(=O)[C@H](CC(C)C)NC(=O)[C@H](CC(C)C)N(C)C(=O)[C@H](CC(C)C)NC(=O)CN2C(=O)c3ccccc3[C@@]2(O)CN(Cc2ccccc2)C(=O)[C@H](CC(C)C)NC1=O [Compound 7, 3-Hydroxy-isoindolinone-cyclo-Gly-Leu-Leu-Leu-N-Me-Leu-Leu] (cyclo(LL[X1]L[NMeL]L))",,> 400,
